Assay results reported in patent US8158186B2, “2-methylthioethyl-substituted heterocycles as feed additives” (Evonik Degussa GmbH, priority 2007, dated 2012).
Read-outs that look alike come from different tables or passages of the source.

How the values were obtained:
[1] = cited from earlier work
[2] = European Commission report, 25 Apr. 2003; cited from earlier work
[3] = published in WO 00/28835, ruminants

Q: Which biological value [1, 3] does the source give for `CSCCC(N)C(=O)OC(C)(C)C` (racemic) [D,L-tert-butylmethionine, reference compound] here?
A: The biological value was 80%.

Q: With `CSCCC(O)C(=O)OC(C)C` (centres unmarked) [HMBi] as the compound, how does the biological value ([1]; published in EP 1358805, HMBi applied to a porous carrier, compared with the at least 50% of WO 00/28835) read?
A: The biological value was “comparable”.

Q: And the biological value [1, 3]?
A: Its biological value is “at least 50%”.

Q: What about the “HMBi absorbed through the rumen wall” value [2] of the same compound?
A: The value was “approximately 50%”.

Q: Which melting point does the source give for `CSCCC1OC(C)(C)NC1=O` (centres unmarked) [compound 10, 2,2-dimethyl-5-(2-(methylthio)ethyl)oxazolidin-4-one] here?
A: Its melting point is 84 °C.

Q: For `CSCCC1OC(c2ccccc2)NC1=O` (centres unmarked) [compound 12, 5-(2-(methylthio)ethyl)-2-phenyloxazolidin-4-one], which melting point is on record?
A: Its melting point is 130 °C.

Q: For `CCC1(C)NC(=O)C(CCSC)O1` (centres unmarked) [compound 13, 2-ethyl-2-methyl-5-(2-(methylthio)ethyl)oxazolidin-4-one], which melting point is on record?
A: The melting point was 62 °C.

Q: With `CSCCC1OC2(CCCCC2)NC1=O` (centres unmarked) [compound 14, 2-(2-(methylthio)ethyl)-1-oxa-4-azaspiro[4.5]decan-3-one] as the compound, how does the melting point read?
A: Its melting point is 109 °C.
